[invAb] = inverted abasic unit; m = 2'-O-methyl; r = 2'-OH (RNA); f = 2'-fluoro

The test system of data set [1] is CTGF mRNA. Description: CTGF mRNA knockdown (Taqman RT-PCR) after siNA transfection of mouse NIH 3T3 cells. The settings on record: mouse NIH3T3 cells, 10 nM siNA, 24 hrs, average of 3 experiments, vs non-targeting control. Type of data set: cell-based. In a few lines:
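Mouse NIH 3T3 cells, 5000/well, transfected 24 h after plating with siNA at 10 nM final using RNAiMax, 24 h exposure without media change. CTGF mRNA by TaqMan RT-qPCR with GAPDH, knockdown via comparative Ct (2^−ΔΔCt) against non-targeting control siNA.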
In general terms: In qPCR the cycle at which signal appears reflects the starting amount.

Data set [2] concerns CTGF mRNA. Description: CTGF mRNA knockdown (Taqman RT-PCR) after siNA transfection of human NHLF cells. It is filed as cell-based. To be noted: 10 nM siNA, 24 hrs, average of 3 experiments, vs non-targeting control. The essentials:
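Normal human lung fibroblasts (5000 cells/well) were transfected 24 h after plating with 10 nM siNA complexed with RNAiMax and harvested 24 h later without a media change. CTGF mRNA was measured by TaqMan RT-qPCR on Cells-to-CT lysates, with β-actin and GAPDH assayed alongside. Knockdown was calculated by comparative Ct (ΔΔCt) against non-targeting control siNA.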

As to “48077-DC: siNA duplex; sense SEQ ID NO: 119 B AGGAAGuAAGGGAcAcGAA TTB; antisense SEQ ID NO: 120 UUCGuGucccuuAcuuccuUU (sense AGGAAGUAAGGGACACGAATT; antisense UUCGUGUCCCUUACUUCCUUU; sense: DNA at AGT, 2'-fluoro at CU, [invAb] at 5' end, 3' end, backbone not given here; antisense: sugars from the 5' end rrrmfmffffffmffffffmm, backbone not given here)”, the “% KD Mouse” value in the data set with CTGF mRNA [1] is reported as 71 ± 4%. For the same substance, the “% KD Human” value in the data set with CTGF mRNA [2] turned out to be 19 ± 2%.

For “48059-DC: siNA duplex; sense SEQ ID NO: 83 B AcGAAcucAuuAGAcuAuA TTB; antisense SEQ ID NO: 84 UAUAGucuAAuGAGuucGuUU (sense ACGAACUCAUUAGACUAUATT; antisense UAUAGUCUAAUGAGUUCGUUU; sense: DNA at AGT, 2'-fluoro at CU, [invAb] at 5' end, 3' end, backbone not given here; antisense: sugars from the 5' end rrrmmfffmmfmmmfffmfmm, backbone not given here)”, the “% KD Mouse” value in the data set on CTGF mRNA [1] was 80 ± 4%. Also, the “% KD Human” value with CTGF mRNA [2] was 25 ± 9%.

On to “48057-DC: siNA duplex; sense SEQ ID NO: 79 B cuAuuuGAAGuGuAAuuGA TTB; antisense SEQ ID NO: 80 UCAAuuAcAcuucAAAuAGUU (sense CUAUUUGAAGUGUAAUUGATT; antisense UCAAUUACACUUCAAAUAGUU; sense: DNA at AGT, 2'-fluoro at CU, [invAb] at 5' end, 3' end, backbone not given here; antisense: sugars from the 5' end rrrmffmfmffffmmmfmmmm, backbone not given here)”, for which the “% KD Mouse” value in the data set on CTGF mRNA [1] turned out to be 26 ± 5%. In addition, the “% KD Human” value in the data set on CTGF mRNA [2] is 80 ± 5%.

Consider “48061-DC: siNA duplex; sense SEQ ID NO: 87 B AcucAuuAGAcuAuAAcuu TTB; antisense SEQ ID NO: 88 AAGuuAuAGucuAAuGAGuUU (sense ACUCAUUAGACUAUAACUUTT; antisense AAGUUAUAGUCUAAUGAGUUU; sense: DNA at AGT, 2'-fluoro at CU, [invAb] at 5' end, 3' end, backbone not given here; antisense: sugars from the 5' end rrrffmfmmfffmmfmmmfmm, backbone not given here)”, for which, in the data set with CTGF mRNA [1], the “% KD Mouse” value was determined as 73 ± 5%. The “% KD Human” value in the data set with CTGF mRNA [2] was determined as 30 ± 12%.
